{"source": "PubChem BioAssay AID1259411", "about": "(Chemical Carcinogenesis Research Information System (CCRIS), 2018)", "system": "rodent carcinogenicity bioassays, tumor incidence", "assay": "CCRIS carcinogenicity studies", "outline": "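NCI-built, expert-reviewed records of carcinogenicity and related test outcomes (mutagenicity, tumor promotion/inhibition) compiled from published and report sources, historical span 1985-2011, not updated.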", "note": "Calls of active or inactive are those of the source. No rule for the calls is given here.", "data": [{"smiles": "S=c1[nH]c2ccccc2s1", "values": [{"measurement": "carcinogen call", "setting": "Species: MOUSE, Strain/Sex: B6C3F1/FEMALE, Route: GAVAGE, Dose: 0, 375, 750 MG/KG IN CORN OIL 5D/WK FOR 103 WK (STUDY DURATION: 104 WK), Dose: 0, 375, 750 MG/KG IN CORN OIL 5D/WK FOR 103 WK (STUDY DURATION: 104 WK), Tumor Site: Type of Lesion: LIVER: HEPATOCELLULAR ADENOMA OR CARCINOMA", "result": "equivocal"}, {"measurement": "carcinogen call", "setting": "Species: MOUSE, Strain/Sex: B6C3F1/MALE, Route: GAVAGE, Dose: 0, 375, 750 MG/KG IN CORN OIL 5D/WK FOR 103 WK (STUDY DURATION: 104 WK), Dose: 0, 375, 750 MG/KG IN CORN OIL 5D/WK FOR 103 WK (STUDY DURATION: 104 WK)", "result": "inactive; negative"}, {"measurement": "carcinogen call", "setting": "Species: RAT, Strain/Sex: F344/FEMALE, Route: GAVAGE, Dose: 0, 188, 375 MG/KG IN CORN OIL 5D/WK FOR 103 WK (STUDY DURATION: 105 WK), Dose: 0, 188, 375 MG/KG IN CORN OIL 5D/WK FOR 103 WK (STUDY DURATION: 105 WK), Tumor Site: Type of Lesion: PITUITARY GLAND: ADENOMA, PITUITARY GLAND: ADENOMA OR ADENOCARCINOMA, ADRENAL GLAND: PHEOCHROMOCYTOMA, Tumor Site: Type of Lesion: PITUITARY GLAND: ADENOMA, PITUITARY GLAND: ADENOMA OR ADENOCARCINOMA, ADRENAL GLAND: PHEOCHROMOCYTOMA", "result": "active; positive"}, {"measurement": "carcinogen call", "setting": "Species: RAT, Strain/Sex: F344/MALE, Route: GAVAGE, Dose: 0, 375, 750 MG/KG IN CORN OIL 5D/WK FOR 103 WK (STUDY DURATION: 105 WK), Dose: 0, 375, 750 MG/KG IN CORN OIL 5D/WK FOR 103 WK (STUDY DURATION: 105 WK), Tumor Site: Type of Lesion: HEMATOPOIETIC SYSTEM: MONONUCLEAR CELL LEUKEMIA, PANCREAS: ACINAR CELL ADENOMA", "result": "active; positive"}]}, {"smiles": "ClCCN(CCCl)c1ccc2ccccc2c1", "values": [{"measurement": "carcinogen call", "setting": "Species: HUMAN, Route: ORAL, Tumor Site: Type of Lesion: URINARY BLADDER", "result": "active; positive"}, {"measurement": "carcinogen call", "setting": "Species: MOUSE, Strain/Sex: STRAIN-A, Route: INTRAPERITONEAL, Dose: 75, 300, 1200, 4800 MG/KG IN 12 DOSES OVER 4 WK, Dose: 75, 300, 1200, 4800 MG/KG IN 12 DOSES OVER 4 WK, Tumor Site: Type of Lesion: LUNG: ADENOMA", "result": "active; positive"}, {"measurement": "carcinogen call", "setting": "Species: RAT, Route: SUBCUTANEOUS, Dose: 40 MG IN REPEATED DOSES, Tumor Site: Type of Lesion: INJECTION SITE", "result": "active; positive"}]}, {"smiles": "CCNC(=O)N(CCO)N=O", "values": [{"measurement": "carcinogen call", "setting": "Species: RAT, Strain/Sex: F344/FEMALE, Route: INTRAVESICULAR, Dose: 0, 3.6 MG 2/WK FOR 30 WK (STUDY DURATION: LIFETIME), Tumor Site: Type of Lesion: BLADDER: TUMOR, UTERUS: TUMOR", "result": "active; positive"}, {"measurement": "carcinogen call", "setting": "Species: RAT, Strain/Sex: F344/FEMALE, Route: ORAL, Dose: 0, 37, 74 MG/L IN DRINKING WATER 5 D/WK FOR 30 WK (STUDY DURATION: LIFETIME), Dose: 0, 37, 74 MG/L IN DRINKING WATER 5 D/WK FOR 30 WK (STUDY DURATION: LIFETIME), Tumor Site: Type of Lesion: MAMMARY GLAND: CARCINOMA", "result": "active; positive"}, {"measurement": "carcinogen call", "setting": "Species: RAT, Strain/Sex: F344/MALE, Route: GAVAGE, Dose: 0, 3.6 MG IN 0.2 ML ETHYL ACETATE/CORN OIL (1:1) 2/WK FOR 31 WK (TOTAL DOSE: 223 MG) (STUDY DURATION: 80 WK), Tumor Site: Type of Lesion: LIVER: CARCINOMA, LUNG: CARCINOMA OR ADENOMA, BRAIN: TUMORS, THYROID: CARCINOMA OR ADENOMA, PERITONEUM: MESOTHELIOMA, Tumor Site: Type of Lesion: LIVER: CARCINOMA, LUNG: CARCINOMA OR ADENOMA, BRAIN: TUMORS, THYROID: CARCINOMA OR ADENOMA, PERITONEUM: MESOTHELIOMA", "result": "active; positive"}, {"measurement": "carcinogen call", "setting": "Species: RAT, Strain/Sex: F344/MALE, Route: ORAL, Dose: 0, 37, 74 MG/L IN DRINKING WATER 5 D/WK FOR 30 WK (STUDY DURATION: LIFETIME), Dose: 0, 37, 74 MG/L IN DRINKING WATER 5 D/WK FOR 30 WK (STUDY DURATION: LIFETIME), Tumor Site: Type of Lesion: LIVER: TUMOR, LUNG: TUMOR, THYROID: FOLLICULAR TUMOR, MESOTHELIUM: TUMOR, NERVOUS SYSTEM: TUMOR, SKIN: TUMOR, Tumor Site: Type of Lesion: LIVER: TUMOR, LUNG: TUMOR, THYROID: FOLLICULAR TUMOR, MESOTHELIUM: TUMOR, NERVOUS SYSTEM: TUMOR, SKIN: TUMOR", "result": "active; positive"}]}, {"smiles": "COc1c(O)c2c(c3cc(C(=O)N4CCc5c4c(O)c(OC)c4[nH]c(C(=O)N6C[C@H]7C[C@@]78C6=CC(=O)c6[nH]cc(C)c68)cc54)[nH]c13)CCN2C(N)=O", "values": [{"measurement": "carcinogen call", "setting": "Species: MOUSE, Strain/Sex: STRAIN-A/MALE,FEMALE, Route: INTRAVENOUS, Dose: 0, 2, 4, 8 UG/KG ONCE (STUDY DURATION: 24 WK), Dose: 0, 2, 4, 8 UG/KG ONCE (STUDY DURATION: 24 WK), Tumor Site: Type of Lesion: LUNG: ADENOMA", "result": "active; positive"}]}, {"smiles": "CC(=O)CN(CC(C)O)N=O", "note": "(configuration not stated)", "values": [{"measurement": "carcinogen call", "setting": "Species: RAT, Strain/Sex: F344/FEMALE, Route: INTRAVESICULAR, Dose: 0, 2.5 MG IN 0.2 ML ETHANOL:DEIONIZED WATER (1:3) 2/WK FOR 22 WK (TOTAL DOSE 0.7 MMOL) (STUDY DURATION: LIFESPAN), Tumor Site: Type of Lesion: BLADDER: TUMOR, LIVER: TUMOR", "result": "active; positive"}, {"measurement": "carcinogen call", "setting": "Species: RAT, Strain/Sex: F344/FEMALE, Route: ORAL, Dose: 0, 55, 220 MG/L DRINKING WATER 5 D/WK FOR 40, 21 WK (TOTAL DOSE 220; 460 MG) (STUDY DURATION: LIFESPAN), Dose: 0, 55, 220 MG/L DRINKING WATER 5 D/WK FOR 40, 21 WK (TOTAL DOSE 220; 460 MG) (STUDY DURATION: LIFESPAN), Tumor Site: Type of Lesion: LIVER: CARCINOMA, ANGIOSARCOMA, LUNG: TUMOR, ESOPHAGUS: CARCINOMA, PAPILLOMA, NASAL CAVITY: TUMOR, Tumor Site: Type of Lesion: LIVER: CARCINOMA, ANGIOSARCOMA, LUNG: TUMOR, ESOPHAGUS: CARCINOMA, PAPILLOMA, NASAL CAVITY: TUMOR", "result": "active; positive"}]}, {"smiles": "COC(=O)C1=CCCN(C)C1", "values": [{"measurement": "carcinogen call", "setting": "Species: MOUSE, Strain/Sex: SWISS/FEMALE, Route: GAVAGE, Dose: 0, 1 MG/D 5 D/WK FOR LIFE (STUDY DURATION: LIFE)", "result": "inactive; negative"}, {"measurement": "carcinogen call", "setting": "Species: MOUSE, Strain/Sex: SWISS/MALE, Route: GAVAGE, Dose: 0, 1 MG/D 5 D/WK FOR LIFE (STUDY DURATION: LIFE), Tumor Site: Type of Lesion: LIVER: HEMANGIOMA, LUNG: ADENOCARCINOMA, STOMACH: SQUAMOUS CELL CARCINOMA, Tumor Site: Type of Lesion: LIVER: HEMANGIOMA, LUNG: ADENOCARCINOMA, STOMACH: SQUAMOUS CELL CARCINOMA", "result": "active; positive"}]}, {"smiles": "CC(=O)CCNCN=O", "values": [{"measurement": "carcinogen call", "setting": "Species: HAMSTER, Strain/Sex: SYRIAN/FEMALE, Route: SUBCUTANEOUS, Dose: 20.25, 40.5, 81MG/KG 1/WK FOR LIFE, Dose: 20.25, 40.5, 81MG/KG 1/WK FOR LIFE, Tumor Site: Type of Lesion: NASAL CAVITY: ADENOCARCINOMA, ORAL CAVITY (CHEEK POUCH): SQUAMOUS CELL PAPILLOMA, SQUAMOUS CELL CARCINOMA, COLON: CARCIN, Tumor Site: Type of Lesion: NASAL CAVITY: ADENOCARCINOMA, ORAL CAVITY (CHEEK POUCH): SQUAMOUS CELL PAPILLOMA, SQUAMOUS CELL CARCINOMA, COLON: CARCIN", "result": "active; positive"}, {"measurement": "carcinogen call", "setting": "Species: HAMSTER, Strain/Sex: SYRIAN/MALE, Route: SUBCUTANEOUS, Dose: 17.63, 35.25, 70.5 MG/KG 1/WKFOR LIFE, Dose: 17.63, 35.25, 70.5 MG/KG 1/WKFOR LIFE, Tumor Site: Type of Lesion: NASAL CAVITY: ADENOCARCINOMA, ORAL CAVITY (CHEEK POUCH): SQUAMOUS CELL PAPILLOMA, SQUAMOUS CELL CARCINOMA, COLON: CARCIN, Tumor Site: Type of Lesion: NASAL CAVITY: ADENOCARCINOMA, ORAL CAVITY (CHEEK POUCH): SQUAMOUS CELL PAPILLOMA, SQUAMOUS CELL CARCINOMA, COLON: CARCIN", "result": "active; positive"}]}, {"smiles": "OC(Cn1cncn1)(c1ccc(F)cc1)c1ccccc1F", "note": "(configuration not stated)", "values": [{"measurement": "carcinogen call", "setting": "Species: Mouse, Strain/Sex: C57BL/10JfCD-1/Alpk (C57BL/10J)/Female (50/Group), Route: Oral, Dose: 0, 10, 50, 200 ppm (0; 1.5; 7.5; 30 mg/kg/day) of 93% flutriafol in diet for 2 yr, study duration 2 yr, Dose: 0, 10, 50, 200 ppm (0; 1.5; 7.5; 30 mg/kg/day) of 93% flutriafol in diet for 2 yr, study duration 2 yr", "result": "inactive; negative"}, {"measurement": "carcinogen call", "setting": "Species: Mouse, Strain/Sex: C57BL/10JfCD-1/Alpk (C57BL/10J)/Male (50/Group), Route: Oral, Dose: 0, 10, 50, 200 ppm (0; 1.5; 7.5; 30 mg/kg/day) of 93% flutriafol in diet for 2 yr, study duration 2 yr, Dose: 0, 10, 50, 200 ppm (0; 1.5; 7.5; 30 mg/kg/day) of 93% flutriafol in diet for 2 yr, study duration 2 yr", "result": "inactive; negative"}, {"measurement": "carcinogen call", "setting": "Species: Rat, Strain/Sex: Alpk:AP/Female (52/Group), Route: Oral, Dose: 0, 20, 200, 2000 ppm (0; 1; 10; 100 mg/kg/day) of 93% flutriafol in diet for 104 wk, study duration 104 wk, Dose: 0, 20, 200, 2000 ppm (0; 1; 10; 100 mg/kg/day) of 93% flutriafol in diet for 104 wk, study duration 104 wk", "result": "inactive; negative"}, {"measurement": "carcinogen call", "setting": "Species: Rat, Strain/Sex: Alpk:AP/Male (52/Group), Route: Oral, Dose: 0, 20, 200, 2000 ppm (0; 1; 10; 100 mg/kg/day) of 93% flutriafol in diet for 104 wk, study duration 104 wk, Dose: 0, 20, 200, 2000 ppm (0; 1; 10; 100 mg/kg/day) of 93% flutriafol in diet for 104 wk, study duration 104 wk", "result": "inactive; negative"}]}]}
